± gives the expanded uncertainty stated by the source.
Assay: refractive index (Na D-line) (dimensionless); xn = mol fraction of the nth substance listed
Details: 101 kPa, Liquid, Standard Abbe refractometry

CC(O)CN (stereo not given) [1-amino-2-propanol] + CCCCO
refractive index
Details	288.15 K	293.15 K	298.15 K	303.15 K	308.15 K	313.15 K	318.15 K	323.15 K	328.15 K	333.15 K
x1 = 0.1	1.4058 ± 0.0004	1.4038 ± 0.0004	1.4018 ± 0.0004	1.3998 ± 0.0004	1.3977 ± 0.0004	1.3956 ± 0.0004	1.3934 ± 0.0004	1.3913 ± 0.0004	1.3892 ± 0.0004	1.387 ± 0.0004
x1 = 0.2005	1.4104 ± 0.0004	1.4084 ± 0.0004	1.4064 ± 0.0004	1.4043 ± 0.0004	1.4022 ± 0.0004	1.4001 ± 0.0004	1.398 ± 0.0004	1.3958 ± 0.0004	1.3937 ± 0.0004	1.3915 ± 0.0004
x1 = 0.3	1.4151 ± 0.0004	1.413 ± 0.0004	1.411 ± 0.0004	1.4089 ± 0.0004	1.4068 ± 0.0004	1.4047 ± 0.0004	1.4026 ± 0.0004	1.4005 ± 0.0004	1.3983 ± 0.0004	1.3961 ± 0.0004
x1 = 0.3999	1.4198 ± 0.0004	1.4178 ± 0.0004	1.4157 ± 0.0004	1.4136 ± 0.0004	1.4115 ± 0.0004	1.4094 ± 0.0004	1.4073 ± 0.0004	1.4051 ± 0.0004	1.403 ± 0.0004	1.4008 ± 0.0004
x1 = 0.5	1.4246 ± 0.0004	1.4226 ± 0.0004	1.4205 ± 0.0004	1.4184 ± 0.0004	1.4163 ± 0.0004	1.4142 ± 0.0004	1.4121 ± 0.0004	1.4099 ± 0.0004	1.4078 ± 0.0004	1.4056 ± 0.0004
x1 = 0.6001	1.4295 ± 0.0004	1.4275 ± 0.0004	1.4254 ± 0.0004	1.4234 ± 0.0004	1.4213 ± 0.0004	1.4191 ± 0.0004	1.417 ± 0.0004	1.4149 ± 0.0004	1.4128 ± 0.0004	1.4106 ± 0.0004
x1 = 0.7	1.4345 ± 0.0005	1.4324 ± 0.0005	1.4304 ± 0.0005	1.4283 ± 0.0005	1.4262 ± 0.0005	1.4242 ± 0.0005	1.4221 ± 0.0005	1.42 ± 0.0005	1.4178 ± 0.0005	1.4156 ± 0.0005
x1 = 0.8	1.4395 ± 0.0005	1.4375 ± 0.0005	1.4354 ± 0.0005	1.4334 ± 0.0005	1.4313 ± 0.0005	1.4292 ± 0.0005	1.4272 ± 0.0005	1.425 ± 0.0005	1.4229 ± 0.0005	1.4208 ± 0.0005
x1 = 0.8997	1.4446 ± 0.0005	1.4426 ± 0.0005	1.4406 ± 0.0005	1.4385 ± 0.0005	1.4365 ± 0.0005	1.4344 ± 0.0005	1.4324 ± 0.0005	1.4303 ± 0.0005	1.4282 ± 0.0005	1.426 ± 0.0005
x1 = 1	1.45 ± 0.0005	1.448 ± 0.0005	1.446 ± 0.0005	1.444 ± 0.0005	1.4419 ± 0.0005	1.4399 ± 0.0005	1.4378 ± 0.0005	1.4358 ± 0.0005	1.4337 ± 0.0005	1.4315 ± 0.0005

CC(O)CN (stereo not given) [1-amino-2-propanol] + CCC(C)O
refractive index
Details	288.15 K	293.15 K	298.15 K	303.15 K	308.15 K	313.15 K	318.15 K	323.15 K	328.15 K	333.15 K
x1 = 0.1003	1.4039 ± 0.0004	1.4018 ± 0.0004	1.3996 ± 0.0004	1.3974 ± 0.0004	1.3952 ± 0.0004	1.3929 ± 0.0004	1.3905 ± 0.0004	1.3881 ± 0.0004	1.3857 ± 0.0004	1.3832 ± 0.0004
x1 = 0.2005	1.4082 ± 0.0004	1.4062 ± 0.0004	1.404 ± 0.0004	1.4019 ± 0.0004	1.3996 ± 0.0004	1.3974 ± 0.0004	1.3951 ± 0.0004	1.3928 ± 0.0004	1.3905 ± 0.0004	1.3881 ± 0.0004
x1 = 0.3	1.4128 ± 0.0004	1.4107 ± 0.0004	1.4086 ± 0.0004	1.4065 ± 0.0004	1.4043 ± 0.0004	1.4021 ± 0.0004	1.3999 ± 0.0004	1.3977 ± 0.0004	1.3955 ± 0.0004	1.3932 ± 0.0004
x1 = 0.3999	1.4177 ± 0.0004	1.4156 ± 0.0004	1.4135 ± 0.0004	1.4114 ± 0.0004	1.4093 ± 0.0004	1.4071 ± 0.0004	1.4049 ± 0.0004	1.4028 ± 0.0004	1.4006 ± 0.0004	1.3983 ± 0.0004
x1 = 0.5	1.4228 ± 0.0004	1.4207 ± 0.0004	1.4186 ± 0.0004	1.4165 ± 0.0004	1.4144 ± 0.0004	1.4123 ± 0.0004	1.4102 ± 0.0004	1.408 ± 0.0004	1.4059 ± 0.0004	1.4036 ± 0.0004
x1 = 0.6001	1.428 ± 0.0004	1.4259 ± 0.0004	1.4239 ± 0.0004	1.4218 ± 0.0004	1.4197 ± 0.0004	1.4176 ± 0.0004	1.4154 ± 0.0004	1.4133 ± 0.0004	1.4112 ± 0.0004	1.409 ± 0.0004
x1 = 0.7	1.4332 ± 0.0005	1.4312 ± 0.0005	1.4292 ± 0.0005	1.4271 ± 0.0005	1.425 ± 0.0005	1.4229 ± 0.0005	1.4208 ± 0.0005	1.4187 ± 0.0005	1.4166 ± 0.0005	1.4144 ± 0.0005
x1 = 0.8	1.4386 ± 0.0005	1.4366 ± 0.0005	1.4345 ± 0.0005	1.4325 ± 0.0005	1.4304 ± 0.0005	1.4284 ± 0.0005	1.4263 ± 0.0005	1.4242 ± 0.0005	1.4221 ± 0.0005	1.42 ± 0.0005
x1 = 0.8999	1.4442 ± 0.0005	1.4422 ± 0.0005	1.4402 ± 0.0005	1.4382 ± 0.0005	1.4362 ± 0.0005	1.4342 ± 0.0005	1.4322 ± 0.0005	1.4302 ± 0.0005	1.4281 ± 0.0005	1.426 ± 0.0005
x1 = 1	1.45 ± 0.0005	1.448 ± 0.0005	1.446 ± 0.0005	1.444 ± 0.0005	1.4419 ± 0.0005	1.4399 ± 0.0005	1.4378 ± 0.0005	1.4358 ± 0.0005	1.4337 ± 0.0005	1.4315 ± 0.0005

From the NIST ThermoML archive (doi:10.1021/je401036f)
